# “And” between values parts separate entries of the source, which are not always exact repeats. Equal values may be shown once.
# Tested on: Salmonella typhimurium TA98
# Assay: Ames test, strain TA98 (reading frame shift)
# Type: cell-based
# Conditions: positive control at 2 µg/mL
# Procedure: The aim of the study was to assess the mutagenic potential of three extracts obtained from stem cells using two strains of Salmonella typhimurium carrying two types of mutations: TA 98-reading frame shift and TA 100-base pair substitution.
# The experimental procedure was carried out basing on the manufacturer's experimental protocol (Xenometrix).
smiles,measurement,value
"O=[N+]([O-])c1ccc2c(c1)Cc1ccccc1-2 [Extract 2-NF, 2-nitrofluorene]",MOI (Multiplicity of induction compared to baseline),6.9 and 5.6
